Key:
[1] = LNP size and PDI by dynamic light scattering; type: physicochemical; conditions: for PDI / Size (nm): mRNA LNP, cationic lipid/DSPC/cholesterol/PEG-lipid 50:10:38.5:1.5
[2] = LNP encapsulation efficiency (Quant-it Ribogreen); type: physicochemical; conditions: mRNA LNP, cationic lipid/DSPC/cholesterol/PEG-lipid 50:10:38.5:1.5
LNP zeta potential = type: physicochemical; conditions: mRNA LNP
mice = test: Bioluminescent study, intramuscular injection of F-luc mRNA LNPs; type: in vivo; conditions: F-luc luminescence flux normalized to MC3; 0.25 mg/kg intramuscular, mice n=3, 6-hour time point
Method in brief: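 Mice (n=3) received LNP-formulated F-luc mRNA at 0.25 mg/kg intramuscularly. Bioluminescence was read 6 h after dosing. Test LNPs were made with an MC3 formulation, and PBS served as control in some groups.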

[3] = Dose-response study, Luc mRNA intramuscular; type: in vivo; conditions: mRNA doses 0.25, 0.05 and 0.01 mg/kg
Description: Samples containing firefly luciferase (Luc) mRNA were administered intramuscularly to evaluate protein expression. […] As the dose decreased, the injection site's expression proportion increased. A26, A47, and B38 maintained injection site flux levels of 0.3-3×10^10 (p/s) across all doses.

SMILES | PDI [1] | Size (nm) [1] | particle sizes by dynamic light scattering (FIG. 22) ([1]; mRNA-loaded LNPs) | Encapsulation efficiency (%) [2] | Zeta potential (mV) (LNP zeta potential) | Relative Total flux (mice) | dose-response of Luc expression [3]
CCCCCCCCNC(=O)C(CCCCCCCC)N(CCCN(C)C)C(=O)CCCCCCC(=O)OC(CCCCCCCC)CCCCCCCC (stereo not shown) [Compound A26] | 0.11 | 94.21 nm | approximately 100 nm | 94.09% | 2.30 mV | A (A: ≥2) | clear dose-response gradient
CCCCCCCCC(C(=O)NCCCCCCCCCC(=O)OCCCCCC)N(CCCN1CCCC1)C(=O)CCCCCCCCCC(=O)OCCCCCC (stereo not shown) [Compound A6] | 0.234 | 55.75 nm |  | 84.80% | −9.54 mV | A (A: ≥2) | 
CCCCCCCCC(CCCCCC)COC(=O)CCCCCNC(=O)C(CCCCC)N(CCCCN1CCCC1)C(=O)CCCCCC(=O)OCC(CCCCCC)CCCCCCCC (stereo not shown) [Compound A46] | 0.19 | 107.50 nm |  | 94.31% | −0.55 mV | A (A: ≥2) | 
CCCCCCCCC(C(=O)NCCCCCCCCCC(=O)OC(CCCC)CCCCCC)N(CCCN(C)C)C(=O)CCCCCCCCCC(=O)OC(CCCC)CCCCCC (stereo not shown) [Compound A13] | 0.157 | 118.5 nm |  | 94.62% | 2.90 mV | B (B: ≥1 and <2) | 
CCCCCCCC(C(=O)NCCCCCCCCCC(=O)OC(CCCCCC)CCCCCC)N(CCCn1ccnc1)C(=O)CCCCCCCCCC(=O)OC(CCCCCC)CCCCCC (stereo not shown) [Compound B20] | 0.391 | 93.23 nm |  | 93.73% | −2.36 mV | A (A: ≥2) | 
CCCCCCCC(C(=O)NCCCCCCCCCC(=O)OC(CCCCCC)CCCCCC)N(CCCNC(=S)N(C)C)C(=O)CCCCCCCCCC(=O)OC(CCCCCC)CCCCCC (stereo not shown) [Compound B21] | 0.388 | 84.45 nm |  | 93.97% | 6.22 mV | B (B: ≥1 and <2) | 
CCCCCCCC(C(=O)NCCCCCCCCCC(=O)OC(CCCCCC)CCCCCC)N(CCCN(C)C)C(=O)CCCCCCCCCC(=O)OC(CCCCCC)CCCCCC (stereo not shown) [Compound A12] | 0.207 | 63.48 nm |  | 24.84% | −9.55 mV | C (C: ≥0.1 and <1) | 

Reference: patent US20260078099A1, “COMPOUND, PREPARATION METHOD THEREOF, AND LIPID NANOPARTICLE AND PHARMACEUTICAL COMPOSITION” (priority 2023, published 2026)
